Reference: patent US8293917B2, “Pyrazole compounds as CCR1 antagonists” (Boehringer Ingelheim International GmbH, priority 2008, dated 2012)
Values joined by “and” are separate entries in the source; they are usually repeats but may differ in a detail not shown here. Equal values may be shown once.

Target: T1, CCR1 (Homo sapiens, UniProt P32246)
T1 construct: host or cells: non-adherent cells
T1 sequence (P32246 1-355): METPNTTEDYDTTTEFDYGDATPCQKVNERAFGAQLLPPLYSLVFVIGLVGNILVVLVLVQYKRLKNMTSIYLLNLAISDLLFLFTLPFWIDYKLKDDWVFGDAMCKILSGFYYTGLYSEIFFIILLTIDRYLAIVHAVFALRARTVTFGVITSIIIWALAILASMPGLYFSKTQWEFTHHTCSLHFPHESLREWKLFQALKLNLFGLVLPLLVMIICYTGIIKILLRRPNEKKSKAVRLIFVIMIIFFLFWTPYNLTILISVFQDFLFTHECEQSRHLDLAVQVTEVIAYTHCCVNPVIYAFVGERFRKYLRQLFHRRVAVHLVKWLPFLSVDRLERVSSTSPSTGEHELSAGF
Assay: functional cellular assay measuring calcium flux in response to MIP1α in CCR1-transfected cells (Method A or Method B)
Format: cell-based
Details: cells stably expressing recombinant CCR1 and G-alpha-16; MIP-1alpha added at EC80; method (A: FLIPR TETRA, B: FDSS6000) not stated per compound
Description: Compounds are assessed for the ability to block the interaction of CCR1 and its ligands in a functional cellular assay measuring calcium flux in response to MIP1α in CCR1-transfected cells.
Method A: Non-adherent cells purchased from Chemicon Corporation (HTS005C), stably expressing recombinant CCR1 and G-alpha-16 are grown in RPMI 1640 medium (Mediatech 10-080-CM) supplemented with 10% heat-inactivated FBS, 0.4 mg/mL Geneticin and penicillin/streptomycin. On the day of the assay, the cells are transferred to a beaker and dye-loaded in bulk using a Fluo-4 NW Calcium Assay Kit with probenecid (Invitrogen F36205) at 0.8E6 cells/mL for 1 hour at room temperature. After 1 hour, they are seeded in a 384-well tissue culture-treated plate at a density of 20,000 cells/well. Appropriately diluted test compound is added to the well to achieve a top concentration of 3,000 nM (diluted 3-fold with 10 doses total). The final concentration of DMSO is 1%. The buffer is HBSS (Invitrogen 14025) with 20 mM HEPES at pH 7.4. The cells are allowed to incubate 1 hour in the dark at room temperature. The plates are transferred to the FLIPR TETRA where MIP-1alpha in 1% BSA is added at the EC80 final concentration. Wells +/−MIP-1alpha containing diluted DMSO instead of compound serve as the controls. Intracellular calcium flux is recorded on the FLIPR TETRA, using excitation at 470/495 nm and emission at 515/575 nm. Data are analyzed using Activity Base software.
Method B: Non-adherent cells purchased from Chemicon Corporation (HTS005C), stably expressing recombinant CCR1 and G-alpha-16 are grown in RPMI 1640 medium (Mediatech 10-080-CM) supplemented with 10% FBS, 0.4 mg/mL Geneticin and penicillin/streptomycin. On the day of the assay, the cells are loaded with Calcium 4 dye (Molecular Devices R7448) with Probenecid (Invitrogen P346400) at 8E5 cells/mL for 1 hour at room temperature. After 1 hour, they are seeded in a 384-well tissue culture-treated plate at a density of 20,000 cells/well. Appropriately diluted test compound is added to the well to achieve a top concentration of 3,000 nM (diluted 4-fold with 10 doses total). The final concentration of DMSO is 1%. The buffer is HBSS (Invitrogen 14025) with 20 mM HEPES at pH 7.4. The cells incubate 30 minutes at 37 C and then 30 minutes at room temperature. The plates are transferred to the HAMAMATSU FDSS6000 where MIP-1alpha in 1% BSA is added at the EC80 final concentration. All plates must be read within 4 hours of the start of dye-loading. Wells +/−MIP-1alpha containing diluted DMSO instead of compound serve as the controls. Data are analyzed using Activity Base software.

IC50	SMILES
41 nM	CCCC(NC(=O)c1cnn(-c2ccc(Cl)cc2)c1C)c1ccc(S(=O)(=O)NC2CCOCC2)nc1 (centres unmarked) [1-(4-Chloro-phenyl)-5-methyl-1H-pyrazole-4-carboxylic acid {1-[6-(tetrahydro-pyran-4-ylsulfamoyl)-pyridin-3-yl]-butyl}-amide]
6.3 nM	CCCC(NC(=O)c1cnn(-c2ccc(Cl)cc2)c1C)c1ccc(S(=O)(=O)NC)nc1 (centres unmarked) [1-(4-Chloro-phenyl)-5-methyl-1H-pyrazole-4-carboxylic acid [1-(6-methylsulfamoyl-pyridin-3-yl)-butyl]-amide]
12 nM	CCC[C@H](NC(=O)c1cnn(-c2ccc(Cl)cc2)c1CN)c1cccc(C(F)(F)F)c1 [5-Aminomethyl-1-(4-chloro-phenyl)-1H-pyrazole-4-carboxylic acid [(S)-1-(3-trifluoromethyl-phenyl)-butyl]-amide]
9.3 nM	CCCC(NC(=O)c1cnn(-c2ccc(Br)cc2)c1C)c1cncc(S(C)(=O)=O)c1 (centres unmarked) [1-(4-Bromo-phenyl)-5-methyl-1H-pyrazole-4-carboxylic acid [1-(5-methanesulfonyl-pyridin-3-yl)-butyl]-amide]
20 nM	CC[C@H](NC(=O)c1cnn(-c2ccc(Cl)cc2)c1C)c1cncc(Br)c1 [1-(4-Chloro-phenyl)-5-methyl-1H-pyrazole-4-carboxylic acid [(S)-1-(5-bromo-pyridin-3-yl)-propyl]-amide]
2.9 nM	CCCC(NC(=O)c1cnn(-c2ccc(Cl)cc2)c1C)c1ccnc(S(=O)(=O)NC)c1 (centres unmarked) [1-(4-Chloro-phenyl)-5-methyl-1H-pyrazole-4-carboxylic acid [1-(2-methylsulfamoyl-pyridin-4-yl)-butyl]-amide]
37 nM	CCCC(NC(=O)c1cnn(-c2ccc(Cl)c(F)c2)c1C)c1cncc(S(C)(=O)=O)c1 (centres unmarked) [1-(4-Chloro-3-fluoro-phenyl)-5-methyl-1H-pyrazole-4-carboxylic acid [1-(5-methanesulfonyl-pyridin-3-yl)-butyl]-amide]
0.3 nM	CCCC(NC(=O)c1cnn(-c2ccc(Cl)c(Cl)c2)c1C)c1ccnc(S(C)(=O)=O)c1 (centres unmarked) [1-(3,4-Dichloro-phenyl)-5-methyl-1H-pyrazole-4-carboxylic acid [1-(2-methanesulfonyl-pyridin-4-yl)-butyl]-amide]
28 nM	CCC[C@H](NC(=O)c1cnn(-c2ccc(Cl)cc2)c1C)c1cccc(Br)c1 [1-(4-Chloro-phenyl)-5-methyl-1H-pyrazole-4-carboxylic acid [(S)-1-(3-bromo-phenyl)-butyl]-amide]
0.6 nM	CCCC(NC(=O)c1cnn(-c2ccc(Cl)c(Cl)c2)c1C)c1ccnc(Br)c1 (centres unmarked) [1-(3,4-Dichloro-phenyl)-5-methyl-1H-pyrazole-4-carboxylic acid [1-(2-bromo-pyridin-4-yl)-butyl]-amide]
4.9 nM	CCCC(NC(=O)c1cnn(-c2ccc(Cl)cc2)c1C)c1cncc(S(=O)(=O)N(C)C)c1 (centres unmarked) [1-(4-Chloro-phenyl)-5-methyl-1H-pyrazole-4-carboxylic acid [1-(5-dimethylsulfamoyl-pyridin-3-yl)-butyl]-amide]
29 nM	CC[C@H](NC(=O)c1cnn(-c2ccc(Cl)cc2)c1C)c1ccnc(S(C)(=O)=O)c1 [1-(4-Chloro-phenyl)-5-methyl-1H-pyrazole-4-carboxylic acid [(S)-1-(2-methanesulfonyl-pyridin-4-yl)-propyl]-amide]
91 nM	CCCC(NC(=O)c1cnn(-c2ccc(Cl)c(F)c2)c1C)c1ccc(S(C)(=O)=O)nc1 (centres unmarked) [1-(4-Chloro-3-fluoro-phenyl)-5-methyl-1H-pyrazole-4-carboxylic acid [1-(6-methanesulfonyl-pyridin-3-yl)-butyl]-amide]
94 nM	CCCC(NC(=O)c1cnn(-c2ccc(Cl)cc2)c1C)c1cncc(S(=O)(=O)CC)c1 (centres unmarked) [1-(4-Chloro-phenyl)-5-methyl-1H-pyrazole-4-carboxylic acid [1-(5-ethanesulfonyl-pyridin-3-yl)-butyl]-amide]
85 nM	CCCC(NC(=O)c1cnn(-c2ccc(Cl)cc2)c1C)c1cncc(S(=O)(=O)C2CC2)c1 (centres unmarked) [1-(4-Chloro-phenyl)-5-methyl-1H-pyrazole-4-carboxylic acid [1-(5-cyclopropanesulfonyl-pyridin-3-yl)-butyl]-amide]
28 nM	Cc1c(C(=O)N[C@@H](C)c2ccc(F)c(C(F)(F)F)c2)cnn1-c1ccc(Cl)c(Cl)c1 [1-(3,4-Dichloro-phenyl)-5-methyl-1H-pyrazole-4-carboxylic acid [(S)-1-(4-fluoro-3-trifluoromethyl-phenyl)-ethyl]-amide]
10 nM	CCC[C@H](NC(=O)c1cnn(-c2ccc(Cl)cc2)c1C)c1ccc(F)c(C(F)(F)F)c1 [1-(4-Chloro-phenyl)-5-methyl-1H-pyrazole-4-carboxylic acid [(S)-1-(4-fluoro-3-trifluoromethyl-phenyl)-butyl]-amide]
4.1 nM	CCCC(NC(=O)c1cnn(-c2ccc(Cl)cc2)c1C)c1cncc(Br)c1 (centres unmarked) [1-(4-Chloro-phenyl)-5-methyl-1H-pyrazole-4-carboxylic acid [1-(5-bromo-pyridin-3-yl)-butyl]-amide]
12 nM	CCCC(NC(=O)c1cnn(-c2ccc(Cl)cc2)c1C)c1ccc(S(=O)(=O)N(C)C)nc1 (centres unmarked) [1-(4-Chloro-phenyl)-5-methyl-1H-pyrazole-4-carboxylic acid [1-(6-dimethylsulfamoyl-pyridin-3-yl)-butyl]-amide]
5.7 nM	CCCC(NC(=O)c1cnn(-c2ccc(Cl)cc2)c1C)c1ccnc(S(=O)(=O)CC)c1 (centres unmarked) [1-(4-Chloro-phenyl)-5-methyl-1H-pyrazole-4-carboxylic acid [1-(2-ethanesulfonyl-pyridin-4-yl)-butyl]-amide]
80 nM	CCCC(NC(=O)c1cnn(-c2ccc(Cl)cc2)c1C)c1ccnc(S(=O)(=O)CCC(=O)OC)c1 (centres unmarked) [3-[4-(1-{[1-(4-Chloro-phenyl)-5-methyl-1H-pyrazole-4-carbonyl]-amino}-butyl)-pyridine-2-sulfonyl]-propionic acid methyl ester]
98 nM	CCC[C@H](NC(=O)c1cnn(-c2ccc(Cl)cc2)c1CNC)c1cccc(C(F)(F)F)c1 [1-(4-Chloro-phenyl)-5-methylaminomethyl-1H-pyrazole-4-carboxylic acid [(S)-1-(3-trifluoromethyl-phenyl)-butyl]-amide]
31 nM and 35 nM	CCCC(NC(=O)c1cnn(-c2ccc(Cl)cc2)c1C)c1cncc(S(N)(=O)=O)c1 (centres unmarked) [1-(4-Chloro-phenyl)-5-methyl-1H-pyrazole-4-carboxylic acid [1-(5-sulfamoyl-pyridin-3-yl)-butyl]-amide]
